From PubChem BioAssay (NCI)
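Five compound concentrations were applied to cells in 96-well plates for 48 hours; endpoints were derived by simple linear interpolation of the resulting dose-response curve. TGI marks complete inhibition of growth.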

Legend:
Experiment in all cases: NCI-60 cell line screen, 48 h
DLD-1 colon = tested on: DLD-1 colon
DMS 273 small cell lung = tested on: DMS 273 small cell lung
HOP-18 NSCLC = tested on: HOP-18 NSCLC
SNB-78 CNS = tested on: SNB-78 CNS
RXF-631 renal = tested on: RXF-631 renal
MDA-N = tested on: MDA-N
XF 498 CNS = tested on: XF 498 CNS

CC1C[C@H](C)CC(C(O)CC2CC(=O)N(Cc3ccccc3)C(=O)C2)C1O (some centres not stated) was tested, and the TGI (DLD-1 colon) was > 100 µM, the TGI (DMS 273 small cell lung) was > 100 µM and the TGI (HOP-18 NSCLC) was > 100 µM. The TGI (SNB-78 CNS) was > 100 µM.
CC(/C(=N\Nc1ccccc1)c1ccc(O)cc1)C1C(=O)Oc2ccccc21 (configuration not stated) was tested, and the TGI (DLD-1 colon) was > 100 µM and the TGI (DMS 273 small cell lung) was > 100 µM.
In the case of NS(=O)(=O)c1ccc(NC2=CC(=O)C(=O)c3ccccc32)cc1, the TGI (DLD-1 colon) was > 100 µM, the TGI (DMS 273 small cell lung) was > 100 µM and the TGI (HOP-18 NSCLC) was > 100 µM. For the same molecule, the TGI (SNB-78 CNS) was > 100 µM.
For N#Cc1c2c(c(N=P(c3ccccc3)(c3ccccc3)c3ccccc3)n3c1nc1ccccc13)CCCC2, the TGI (DLD-1 colon) was > 100 µM, the TGI (RXF-631 renal) was > 100 µM and the TGI (DMS 273 small cell lung) was 56.1 µM. The TGI (HOP-18 NSCLC) was > 100 µM and the TGI (SNB-78 CNS) was 97.3 µM.
For Cc1ccc(S(=O)(=O)N2CCSCCN(S(=O)(=O)c3ccc(C)cc3)CCN(S(=O)(=O)c3ccc(C)cc3)CC2)cc1, the TGI (MDA-N) was > 100 µM.
In the case of COc1ccc(C2CC(c3cc(C)ccc3O)=NC(N)=N2)cc1 (configuration not stated), the TGI (DLD-1 colon) was > 100 µM, the TGI (XF 498 CNS) was > 100 µM and the TGI (DMS 273 small cell lung) was > 100 µM. The TGI (HOP-18 NSCLC) was > 100 µM and the TGI (SNB-78 CNS) was > 100 µM.
With CC1SC2=NC3=C(c4ccccc4C3=O)C(c3ccc(Cl)cc3)N2C1=O (configuration not stated) the TGI (DLD-1 colon) was > 100 µM, the TGI (XF 498 CNS) was > 100 µM and the TGI (RXF-631 renal) was > 100 µM. The TGI (DMS 273 small cell lung) was > 100 µM.
For C=CC(C1=CC(=O)C(OC)=CC1=O)c1ccccc1 (configuration not stated), the TGI (MDA-N) was 31.6 µM.
Cc1cccc2c1N(C(=O)/C=C\C(=O)O)C(c1c(C)[nH]c3ccccc13)C2 (configuration not stated) was tested, and the TGI (DLD-1 colon) was > 100 µM, the TGI (XF 498 CNS) was 40.6 µM and the TGI (SNB-78 CNS) was > 100 µM.
O=C1CCC2CC(C(=O)c3ccccc3)CCC2CN1 (configuration not stated) (tested in a mixture with another compound) was tested, and the TGI (DLD-1 colon) was > 100 µM, the TGI (DMS 273 small cell lung) was > 100 µM and the TGI (HOP-18 NSCLC) was > 100 µM. For the same molecule, the TGI (SNB-78 CNS) was > 100 µM.
COc1cc(OC)c(/C=C\c2ccnc3ccccc23)c(OC)c1 gave a TGI (MDA-N) of 2.03 µM.
CCOC(=O)C1C2CCC(C2)C1(CCl)C(=O)OCC (configuration not stated) was tested, and the TGI (RXF-631 renal) was > 100 µM, the TGI (DMS 273 small cell lung) was > 100 µM and the TGI (HOP-18 NSCLC) was > 100 µM.
With CCOC(=O)CSC(=O)NCCCl the TGI (DLD-1 colon) was > 100 µM, the TGI (DMS 273 small cell lung) was > 100 µM and the TGI (SNB-78 CNS) was > 100 µM.
With COC(=O)C(=O)C(C(=O)C(=O)Nc1nc2ccc(C)cc2s1)c1nc2ccc([N+](=O)[O-])cc2[nH]c1=O (configuration not stated) the TGI (MDA-N) was > 100 µM.
In the case of COC(=O)C(CC(C)C)NC(=O)NC12CC3CC(CC(F)(C3)C1)C2 (configuration not stated), the TGI (DLD-1 colon) was > 100 µM, the TGI (RXF-631 renal) was > 100 µM and the TGI (SNB-78 CNS) was > 100 µM.
Molecule CCN(CC)CCOc1ccccc1/C=C/c1noc2ccccc12 has a TGI (MDA-N) of 24.1 µM.
With O=C1c2ccccc2C(=O)N1CCN(CCN1C(=O)c2ccccc2C1=O)Cn1cccn1 the TGI (DLD-1 colon) was > 100 µM, the TGI (XF 498 CNS) was > 100 µM and the TGI (RXF-631 renal) was > 100 µM. The TGI (DMS 273 small cell lung) was > 100 µM and the TGI (SNB-78 CNS) was > 100 µM.
CNCc1cc(OC)ccc1-c1ccc(OC)c(OC)c1OC was tested, and the TGI (DLD-1 colon) was > 100 µM, the TGI (XF 498 CNS) was > 100 µM and the TGI (RXF-631 renal) was > 100 µM. For the same molecule, the TGI (DMS 273 small cell lung) was > 100 µM, the TGI (HOP-18 NSCLC) was > 100 µM and the TGI (SNB-78 CNS) was > 100 µM.
With CC[P+](C)(C)c1ccccc1 the TGI (DLD-1 colon) was > 100 µM, the TGI (XF 498 CNS) was > 100 µM and the TGI (DMS 273 small cell lung) was > 100 µM. For the same molecule, the TGI (HOP-18 NSCLC) was 49.8 µM and the TGI (SNB-78 CNS) was > 100 µM.
With N/N=C(\C(=O)Nc1ccc(Cl)cc1Cl)C(c1cnc2ccccc2n1)[N+](=O)[O-] (configuration not stated) the TGI (MDA-N) was > 100 µM.
In the case of Cc1ccc(NC(=O)C(=O)C(C#N)c2nc(-c3ccc(-c4ccccc4)cc3)cs2)c(C)c1 (configuration not stated), the TGI (DLD-1 colon) was > 100 µM, the TGI (DMS 273 small cell lung) was > 100 µM and the TGI (HOP-18 NSCLC) was > 100 µM. For the same molecule, the TGI (SNB-78 CNS) was > 100 µM.
For COC(=O)C(C(=O)C(=O)Nc1nc(=S)[nH][nH]1)c1csc(-n2nc(-c3ccccc3)cc2-c2ccccc2)n1 (configuration not stated), the TGI (DLD-1 colon) was > 100 µM, the TGI (DMS 273 small cell lung) was > 100 µM and the TGI (SNB-78 CNS) was > 100 µM.
With NNC(=O)CNC(=O)c1ccc(Cl)cc1Cl the TGI (DLD-1 colon) was > 100 µM, the TGI (XF 498 CNS) was > 100 µM and the TGI (DMS 273 small cell lung) was > 100 µM. For the same molecule, the TGI (HOP-18 NSCLC) was > 100 µM.
O=C(c1ccccc1)[C@H]1Nc2ccc(Cl)cc2C2c3ccccc3CC21 (some centres not stated) was tested, and the TGI (DLD-1 colon) was > 100 µM, the TGI (XF 498 CNS) was 72.5 µM and the TGI (RXF-631 renal) was > 100 µM. The TGI (DMS 273 small cell lung) was > 100 µM and the TGI (SNB-78 CNS) was > 100 µM.
CCCCCCCCOCC(O)COC(=O)CCCCCCC (configuration not stated) was tested, and the TGI (DLD-1 colon) was > 100 µM, the TGI (RXF-631 renal) was > 100 µM and the TGI (DMS 273 small cell lung) was > 100 µM. For the same molecule, the TGI (HOP-18 NSCLC) was > 100 µM.
CNC(=O)OCc1c2ccncc2c(C)c2c1[nH]c1ccccc12 gave a TGI (MDA-N) of 1.73 µM.
With NC(=O)c1ccc(NN=O)nc1 the TGI (MDA-N) was > 100 µM.
In the case of N#Cc1ccccc1NC(=O)C(=O)c1c(O)c2ccccc2oc1=O, the TGI (MDA-N) was > 100 µM.
In the case of O=C(c1ccccc1)N1C2CCC1C(C(F)(F)F)=C2C(F)(F)F, the TGI (DLD-1 colon) was > 100 µM, the TGI (RXF-631 renal) was > 100 µM and the TGI (DMS 273 small cell lung) was > 100 µM. For the same molecule, the TGI (HOP-18 NSCLC) was > 100 µM and the TGI (SNB-78 CNS) was > 100 µM.
CC(=O)c1ccc(OCC(O)CO)cc1 (configuration not stated) was tested, and the TGI (DLD-1 colon) was > 100 µM, the TGI (RXF-631 renal) was > 100 µM and the TGI (DMS 273 small cell lung) was > 100 µM. The TGI (HOP-18 NSCLC) was > 100 µM and the TGI (SNB-78 CNS) was > 100 µM.
For O=C(O)C[C@H]1CCCCC12CCOC2=O (some centres not stated), the TGI (DLD-1 colon) was > 100 µM, the TGI (XF 498 CNS) was > 100 µM and the TGI (RXF-631 renal) was > 100 µM. The TGI (DMS 273 small cell lung) was > 100 µM, the TGI (HOP-18 NSCLC) was > 100 µM and the TGI (SNB-78 CNS) was > 100 µM.
CC(=O)Nc1cc(N(CCOS(C)(=O)=O)CCOS(C)(=O)=O)ccc1N=O was tested, and the TGI (DLD-1 colon) was > 100 µM, the TGI (XF 498 CNS) was > 100 µM and the TGI (DMS 273 small cell lung) was > 100 µM.
With COC(=O)/C(=N\Nc1nc(=S)[nH]n1N)C(C#N)c1ccccc1 (configuration not stated) the TGI (DLD-1 colon) was > 100 µM, the TGI (HOP-18 NSCLC) was > 100 µM and the TGI (SNB-78 CNS) was > 100 µM.
In the case of COc1c(C(=O)c2ccc([N+](=O)[O-])cc2)cc(C(C)(C)C)cc1C(C)(C)C, the TGI (DLD-1 colon) was > 100 µM, the TGI (XF 498 CNS) was 55.1 µM and the TGI (DMS 273 small cell lung) was > 100 µM. For the same molecule, the TGI (HOP-18 NSCLC) was > 100 µM and the TGI (SNB-78 CNS) was > 100 µM.
